Test results: patent publication US11191795B2, “Herbal compositions and methods for treating herpes” (priority 2019, dated 2021)

Test system: cold sores
Assay type: in vivo, human

## Nc1nc2c(ncn2COCCO)c(=O)[nH]1 [acyclovir]
Example 3, person, history, oral and topical
  response of cold sores to treatment: unresponsiveness
human, in vivo, po
  side effects: dizziness
